Data reported in ChEMBL document CHEMBL1201862, “PubChem BioAssay data set” (2004).
One block for each compound: values may come before it. Active and inactive are the calls of the source.

What was measured:
Large T antigen = Large T antigen (Simian virus 40, UniProt P03070); assay type: functional, Betapolyomavirus macacae;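 note: Confirmatory-stage PubChem screen for compounds that inhibit SV40 T antigen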
Salmon testes DNA = assay: acridine orange-DNA binding displacement – biochemical, fluorescence polarization, cherry-picked samples, set 2, artefact control for KSHV LANA DNA-binding inhibitor project, dose response (AID 504727); parameters: species or system Salmonidae
ORF 73 = target: T1, ORF 73 (Human herpesvirus 8, UniProt O40947); assay: KSHV LANA DNA-binding disruption – biochemical, fluorescence polarization, cherry-picked samples, dose response (AID 504725); parameters: species or system Human gammaherpesvirus 8;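 note: fluorescence polarization of a labeled DNA duplex reporting LANA DNA binding; potency is for inhibitors that block LANA binding to the DNA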
T1 sequence (O40947 whole entry): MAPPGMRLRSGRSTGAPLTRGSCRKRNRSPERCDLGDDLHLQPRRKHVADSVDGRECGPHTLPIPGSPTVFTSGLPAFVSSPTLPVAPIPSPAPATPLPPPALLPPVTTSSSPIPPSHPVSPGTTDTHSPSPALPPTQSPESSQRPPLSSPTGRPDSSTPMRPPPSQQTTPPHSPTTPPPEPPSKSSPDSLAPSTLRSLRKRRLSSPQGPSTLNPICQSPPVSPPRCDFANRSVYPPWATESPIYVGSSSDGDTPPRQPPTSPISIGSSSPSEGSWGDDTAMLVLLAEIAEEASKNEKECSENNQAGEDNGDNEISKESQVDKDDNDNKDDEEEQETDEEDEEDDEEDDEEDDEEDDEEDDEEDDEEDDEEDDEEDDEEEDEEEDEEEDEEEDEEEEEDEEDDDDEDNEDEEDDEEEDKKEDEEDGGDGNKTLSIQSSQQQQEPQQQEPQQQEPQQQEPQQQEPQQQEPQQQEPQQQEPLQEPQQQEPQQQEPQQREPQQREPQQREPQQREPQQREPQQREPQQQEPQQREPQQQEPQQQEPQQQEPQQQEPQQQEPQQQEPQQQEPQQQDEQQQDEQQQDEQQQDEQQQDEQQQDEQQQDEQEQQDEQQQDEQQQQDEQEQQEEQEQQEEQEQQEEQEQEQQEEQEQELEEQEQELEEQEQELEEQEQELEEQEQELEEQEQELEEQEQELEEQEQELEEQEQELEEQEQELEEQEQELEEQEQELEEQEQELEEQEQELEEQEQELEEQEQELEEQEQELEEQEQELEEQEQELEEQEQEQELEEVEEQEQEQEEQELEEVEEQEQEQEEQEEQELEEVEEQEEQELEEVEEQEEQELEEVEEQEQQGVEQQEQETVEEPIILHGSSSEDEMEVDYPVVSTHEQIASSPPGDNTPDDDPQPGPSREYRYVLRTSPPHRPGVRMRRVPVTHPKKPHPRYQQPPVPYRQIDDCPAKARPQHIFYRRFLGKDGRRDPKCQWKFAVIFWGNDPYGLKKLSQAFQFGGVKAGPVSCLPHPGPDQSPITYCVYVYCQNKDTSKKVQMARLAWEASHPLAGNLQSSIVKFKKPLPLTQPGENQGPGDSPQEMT

[1] = fluconazole-exposed Candida albicans growth modulators – fluorescence, retest, confirmation (AID 2467); assay type: functional, cell-based
[2] = target: Polyadenylate-binding protein 1 (Homo sapiens, UniProt P11940); assay: MLLE domain peptide-binding blockers, IC50 – biochemical, fluorescence polarization, FITC-PAM2 peptide, dose response (AID 602259); assay type: functional; conditions: read-out: IC50_Mean
Chain of Polyadenylate-binding protein 1 (P11940 whole entry, the tested form may be a part): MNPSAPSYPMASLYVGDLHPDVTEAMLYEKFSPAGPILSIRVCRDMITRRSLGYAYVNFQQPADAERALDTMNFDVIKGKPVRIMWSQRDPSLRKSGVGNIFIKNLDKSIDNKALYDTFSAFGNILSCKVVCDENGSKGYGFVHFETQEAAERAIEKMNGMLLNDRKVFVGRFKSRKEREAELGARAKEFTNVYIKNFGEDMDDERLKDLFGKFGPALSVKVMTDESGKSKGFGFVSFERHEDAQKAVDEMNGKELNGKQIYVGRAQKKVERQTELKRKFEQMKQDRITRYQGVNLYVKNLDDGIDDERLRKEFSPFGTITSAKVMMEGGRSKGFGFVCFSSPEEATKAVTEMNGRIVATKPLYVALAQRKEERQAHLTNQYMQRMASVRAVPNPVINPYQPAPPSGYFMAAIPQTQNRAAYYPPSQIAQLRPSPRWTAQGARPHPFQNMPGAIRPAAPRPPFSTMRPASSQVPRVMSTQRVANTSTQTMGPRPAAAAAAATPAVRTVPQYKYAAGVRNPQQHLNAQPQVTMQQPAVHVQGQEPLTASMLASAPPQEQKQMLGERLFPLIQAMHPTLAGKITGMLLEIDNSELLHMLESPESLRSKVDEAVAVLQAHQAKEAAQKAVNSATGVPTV

[3] = target: Histone-lysine N-methyltransferase NSD2 (Homo sapiens, UniProt O96028); assay type: biochemical
Chain of Histone-lysine N-methyltransferase NSD2 (O96028 whole entry): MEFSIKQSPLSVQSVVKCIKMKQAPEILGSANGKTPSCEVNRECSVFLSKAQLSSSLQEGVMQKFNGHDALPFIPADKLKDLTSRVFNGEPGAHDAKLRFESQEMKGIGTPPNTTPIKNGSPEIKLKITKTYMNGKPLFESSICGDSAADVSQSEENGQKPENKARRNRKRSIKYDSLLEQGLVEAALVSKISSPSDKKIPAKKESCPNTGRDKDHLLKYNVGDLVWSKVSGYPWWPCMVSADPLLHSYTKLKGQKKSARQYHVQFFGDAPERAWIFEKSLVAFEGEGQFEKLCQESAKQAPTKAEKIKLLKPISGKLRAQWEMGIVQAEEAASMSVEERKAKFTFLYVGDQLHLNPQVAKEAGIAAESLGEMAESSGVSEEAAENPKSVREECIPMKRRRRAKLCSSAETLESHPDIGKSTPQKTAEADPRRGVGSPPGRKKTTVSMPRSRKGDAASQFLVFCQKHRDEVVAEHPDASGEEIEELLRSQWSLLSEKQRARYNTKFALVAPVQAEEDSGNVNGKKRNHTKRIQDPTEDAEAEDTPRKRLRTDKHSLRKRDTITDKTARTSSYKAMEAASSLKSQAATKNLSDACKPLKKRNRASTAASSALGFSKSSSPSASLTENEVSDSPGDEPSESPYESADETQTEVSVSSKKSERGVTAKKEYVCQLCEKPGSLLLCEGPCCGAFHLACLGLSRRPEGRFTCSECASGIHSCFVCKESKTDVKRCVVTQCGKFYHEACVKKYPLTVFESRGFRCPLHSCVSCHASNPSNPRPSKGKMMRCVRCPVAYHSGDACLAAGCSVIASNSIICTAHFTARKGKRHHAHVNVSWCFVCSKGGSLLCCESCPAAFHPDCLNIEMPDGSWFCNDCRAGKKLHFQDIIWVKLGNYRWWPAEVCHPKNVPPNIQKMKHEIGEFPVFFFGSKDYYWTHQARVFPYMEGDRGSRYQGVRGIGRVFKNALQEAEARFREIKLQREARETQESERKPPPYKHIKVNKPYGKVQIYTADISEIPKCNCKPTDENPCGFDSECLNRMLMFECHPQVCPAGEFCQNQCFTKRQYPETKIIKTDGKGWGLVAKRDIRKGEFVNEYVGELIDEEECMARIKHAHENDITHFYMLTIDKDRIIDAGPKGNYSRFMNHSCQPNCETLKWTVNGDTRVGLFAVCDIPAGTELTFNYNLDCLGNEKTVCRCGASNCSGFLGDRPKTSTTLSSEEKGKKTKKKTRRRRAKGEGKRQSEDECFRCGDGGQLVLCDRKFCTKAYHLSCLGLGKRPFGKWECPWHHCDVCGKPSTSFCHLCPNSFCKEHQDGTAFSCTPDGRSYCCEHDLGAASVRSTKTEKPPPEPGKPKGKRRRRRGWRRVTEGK

[4] = toxicity toward HepG2 liver cells – cell-based, plate reader, cherry-pick, antagonist series, cytotoxicity control, dose response (AID 743416); assay type: functional
Protein Tat = target: T2, Protein Tat (Human immunodeficiency virus type 1 group M subtype B (isolate HXB2)(HIV-1), UniProt P04608); assay type: functional;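 note: tat binding to TAR RNA read out by fluorescence polarization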
T2 sequence (P04608 whole entry): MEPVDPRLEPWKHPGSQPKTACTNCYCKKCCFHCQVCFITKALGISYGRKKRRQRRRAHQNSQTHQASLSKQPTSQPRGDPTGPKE

[5] = target: T3, 1-phosphatidylinositol 4,5-bisphosphate phosphodiesterase gamma-1 (Homo sapiens, UniProt P19174); assay: Counterscreen for inhibitors of phospholipase C isozymes (PLC-B3): Fluorescence-based biochemical high throughput dose response assay to identify inhibitors of phospholipase C isozymes (PLC-gamma1).
T3 sequence (P19174 whole entry): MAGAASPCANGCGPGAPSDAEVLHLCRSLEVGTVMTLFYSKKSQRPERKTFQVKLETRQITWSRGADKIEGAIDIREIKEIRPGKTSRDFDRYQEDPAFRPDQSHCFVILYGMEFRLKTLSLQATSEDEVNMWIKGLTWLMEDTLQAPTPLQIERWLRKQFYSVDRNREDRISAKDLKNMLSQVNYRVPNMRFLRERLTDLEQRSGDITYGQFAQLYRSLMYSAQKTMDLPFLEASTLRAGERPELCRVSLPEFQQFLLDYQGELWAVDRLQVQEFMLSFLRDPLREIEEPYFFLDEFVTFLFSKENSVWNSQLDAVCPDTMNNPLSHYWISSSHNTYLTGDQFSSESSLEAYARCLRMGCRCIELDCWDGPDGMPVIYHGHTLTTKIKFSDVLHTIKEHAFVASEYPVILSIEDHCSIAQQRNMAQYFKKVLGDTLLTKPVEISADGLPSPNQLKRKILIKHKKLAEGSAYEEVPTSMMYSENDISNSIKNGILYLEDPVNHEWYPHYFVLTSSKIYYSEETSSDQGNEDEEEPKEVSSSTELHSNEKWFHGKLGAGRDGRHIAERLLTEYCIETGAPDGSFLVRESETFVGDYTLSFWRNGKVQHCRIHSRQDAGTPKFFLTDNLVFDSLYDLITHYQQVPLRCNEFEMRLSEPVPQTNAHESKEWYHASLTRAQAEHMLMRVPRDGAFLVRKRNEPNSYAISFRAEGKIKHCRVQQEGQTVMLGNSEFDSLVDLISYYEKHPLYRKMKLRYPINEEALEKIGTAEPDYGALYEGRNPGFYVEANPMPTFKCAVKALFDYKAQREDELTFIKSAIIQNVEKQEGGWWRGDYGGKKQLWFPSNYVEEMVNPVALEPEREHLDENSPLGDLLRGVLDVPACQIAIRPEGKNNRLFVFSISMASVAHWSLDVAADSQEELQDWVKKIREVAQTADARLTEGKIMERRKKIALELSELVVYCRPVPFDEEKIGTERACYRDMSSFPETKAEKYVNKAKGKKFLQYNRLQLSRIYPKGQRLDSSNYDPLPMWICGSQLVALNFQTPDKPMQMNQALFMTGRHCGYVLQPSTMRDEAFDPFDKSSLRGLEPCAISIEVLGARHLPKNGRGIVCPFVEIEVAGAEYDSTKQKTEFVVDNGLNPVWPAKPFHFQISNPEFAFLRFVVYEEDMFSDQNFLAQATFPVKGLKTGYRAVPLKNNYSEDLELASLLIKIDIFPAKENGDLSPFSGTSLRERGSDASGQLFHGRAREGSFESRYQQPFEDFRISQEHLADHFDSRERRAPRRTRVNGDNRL

Chain of Large T antigen (P03070 whole entry): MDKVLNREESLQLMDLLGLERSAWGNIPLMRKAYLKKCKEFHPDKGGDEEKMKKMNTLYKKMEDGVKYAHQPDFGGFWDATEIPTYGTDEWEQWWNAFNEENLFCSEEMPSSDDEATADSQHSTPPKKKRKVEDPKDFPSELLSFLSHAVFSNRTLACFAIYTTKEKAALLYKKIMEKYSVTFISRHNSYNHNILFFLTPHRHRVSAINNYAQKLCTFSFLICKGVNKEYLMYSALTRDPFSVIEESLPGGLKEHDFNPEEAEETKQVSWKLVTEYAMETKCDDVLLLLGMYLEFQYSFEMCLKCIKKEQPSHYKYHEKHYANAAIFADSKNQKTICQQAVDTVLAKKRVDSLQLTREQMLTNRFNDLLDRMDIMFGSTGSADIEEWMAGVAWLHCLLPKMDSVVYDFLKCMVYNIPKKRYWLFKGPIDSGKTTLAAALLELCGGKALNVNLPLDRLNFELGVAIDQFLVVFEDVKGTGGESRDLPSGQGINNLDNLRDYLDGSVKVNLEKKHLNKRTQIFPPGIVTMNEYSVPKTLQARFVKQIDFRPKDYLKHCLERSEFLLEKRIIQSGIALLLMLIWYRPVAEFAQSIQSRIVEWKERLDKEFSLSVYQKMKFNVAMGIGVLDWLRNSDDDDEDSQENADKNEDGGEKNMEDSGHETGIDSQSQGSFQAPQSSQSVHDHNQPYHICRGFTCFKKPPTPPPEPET

Compound: O=C(O)c1cc(N2N=C(C(F)(F)F)/C(=C/C=C/c3ccco3)C2=O)ccc1Cl
IC50 (Large T antigen): 4.47 µM (active)
AC50 (Salmon testes DNA): 126 µM (active)
AC50 (ORF 73): 2.28 µM (active)

Compound: CNCc1ccccc1Sc1ccc(O)c(O)c1
EC50 [1]: > 38 µM (not active)
IC50 [2]: > 66 µM (inactive)
AC50 [3]: > 20 µM (inactive)
AC50 [4]: > 52 µM (inactive)
IC50 (Protein Tat): > 100 µM (active)

IC50 [5]: > 122 µM (inactive)
Compound: O=C(/C=C/c1ccco1)NC(=S)Nc1cccc(C(=O)O)c1
